Columns and labels:
Details in all cases: incubation time: 72 h
MDA-MB-231 [1] = experiment: normalised response (% of control), CellTox Green; higher = less cell death (100 = DMSO, 0 = benzethonium chloride kill control)
In short: (§1)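 Breast cancer cell lines were exposed for 72 h in 384-well plates to compound at 5 concentrations, 10-fold apart, covering a 10,000-fold range fixed for each compound. Plates were read for CellTox Green fluorescence and CellTiter-Glo luminescence and normalised to 0.1 % DMSO (100) and a positive kill control (0). Each value is the normalised signal at one concentration of the series.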

HDQ-P1 [2] = experiment: as above
In short: as §1

CAL-148 [3] = experiment: as above
In short: as §1

HCC1143 [4] = experiment: as above
In short: as §1

HCC1599 [5] = experiment: as above
In short: as §1

MDA-MB-453 [6] = experiment: as above
In short: as §1

Hs578T [7] = experiment: as above
In short: as §1

BT-474 [8] = experiment: as above
In short: as §1

CAL-51 [9] = experiment: as above
In short: as §1

MFM-223 [10] = experiment: as above
In short: as §1

MDA-MB-468 [11] = experiment: as above
In short: as §1

CAL-120 [12] = experiment: as above
In short: as §1

BT-549 [13] = experiment: as above
In short: as §1

CAL-85-1 [14] = experiment: as above
In short: as §1

DU-4475 [15] = experiment: as above
In short: as §1

MDA-MB-436 [16] = experiment: as above
In short: as §1

MCF-10A [17] = experiment: as above
In short: as §1

MDA-MB-231 [18] = experiment: normalised response (% of control), CellTiter-Glo; higher = more viable cells (100 = DMSO, 0 = benzethonium chloride kill control)
Method: (§2)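 DSRT, 72 h incubation, CellTox Green / CellTiter-Glo readout. Signal is normalised to DMSO and benzethonium chloride controls. Value is the normalised response at dose 3.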

HDQ-P1 [19] = experiment: as above
Method: as §2

CAL-148 [20] = experiment: as above
Method: as §2

HCC1143 [21] = experiment: as above
Method: as §2

HCC1599 [22] = experiment: as above
Method: as §2

MDA-MB-453 [23] = experiment: as above
Method: as §2

Hs578T [24] = experiment: as above
Method: as §2

BT-474 [25] = experiment: as above
Method: as §2

CAL-51 [26] = experiment: as above
Method: as §2

MFM-223 [27] = experiment: as above
Method: as §2

SK-BR-3 = experiment: as above
Method: as §2

MDA-MB-468 [28] = experiment: as above
Method: as §2

CAL-120 [29] = experiment: as above
Method: as §2

BT-549 [30] = experiment: as above
Method: as §2

CAL-85-1 [31] = experiment: as above
Method: as §2

DU-4475 [32] = experiment: as above
Method: as §2

HCC1937 [33] = experiment: as above
Method: as §2

MDA-MB-436 [34] = experiment: as above
Method: as §2

MCF-10A [35] = experiment: as above
Method: as §2

HCC1937 [36] = experiment: normalised response (% of control), CellTox Green; higher = less cell death (100 = DMSO, 0 = benzethonium chloride kill control)
In short: as §1

SMILES | normalised response (MDA-MB-231 [1]) [%] | normalised response (HDQ-P1 [2]) [%] | normalised response (CAL-148 [3]) [%] | normalised response (HCC1143 [4]) [%] | normalised response (HCC1599 [5]) [%] | normalised response (MDA-MB-453 [6]) [%] | normalised response (Hs578T [7]) [%] | normalised response (BT-474 [8]) [%] | normalised response (CAL-51 [9]) [%] | normalised response (MFM-223 [10]) [%] | normalised response (MDA-MB-468 [11]) [%] | normalised response (CAL-120 [12]) [%] | normalised response (BT-549 [13]) [%] | normalised response (CAL-85-1 [14]) [%] | normalised response (DU-4475 [15]) [%] | normalised response (MDA-MB-436 [16]) [%] | normalised response (MCF-10A [17]) [%] | normalised response (MDA-MB-231 [18]) [%] | normalised response (HDQ-P1 [19]) [%] | normalised response (CAL-148 [20]) [%] | normalised response (HCC1143 [21]) [%] | normalised response (HCC1599 [22]) [%] | normalised response (MDA-MB-453 [23]) [%] | normalised response (Hs578T [24]) [%] | normalised response (BT-474 [25]) [%] | normalised response (CAL-51 [26]) [%] | normalised response (MFM-223 [27]) [%] | normalised response (SK-BR-3) [%] | normalised response (MDA-MB-468 [28]) [%] | normalised response (CAL-120 [29]) [%] | normalised response (BT-549 [30]) [%] | normalised response (CAL-85-1 [31]) [%] | normalised response (DU-4475 [32]) [%] | normalised response (HCC1937 [33]) [%] | normalised response (MDA-MB-436 [34]) [%] | normalised response (MCF-10A [35]) [%] | normalised response (HCC1937 [36]) [%]
CCCCC(=O)OCC(=O)[C@]1(O)Cc2c(O)c3c(c(O)c2[C@@H](O[C@H]2C[C@H](NC(=O)C(F)(F)F)[C@H](O)[C@H](C)O2)C1)C(=O)c1c(OC)cccc1C3=O [Valrubicin] (50 nM) | 122 | 107 | 76.3 | 111 | 115 | 108 | 114 | 103 | 76.7 | 108 | 152 | 111 | 121 | 118 | 109 | 101 | 106 | 97.4 | 102 | 97 | 104 | 91.7 | 118 | 101 | 98.2 | 72.7 | 101 | 94.8 | 92.9 | 98.4 | 86.2 | 98.8 | 84 | 97.9 | 92.2 | 101 | –
CCCS(=O)(=O)Nc1ccc(F)c(C(=O)c2c[nH]c3ncc(-c4ccc(Cl)cc4)cc23)c1F [Vemurafenib] (100 nM) | – | 108 | 97.3 | 82.2 | 94 | 97.9 | 103 | 98.3 | 76.9 | 94.2 | 98.4 | 97.7 | 94.2 | 102 | 96.1 | 72.4 | 91.9 | 93.4 | 94.3 | 93.9 | 94.7 | 95.5 | 79.3 | 95.9 | 96.9 | 88.6 | 89.4 | 84.8 | 91.7 | 93.3 | 97.9 | 91.8 | 86.5 | 97.7 | 95.9 | 96.8 | 92.1
CC(=O)Nc1cccc(-n2c(=O)n(C3CC3)c(=O)c3c(Nc4ccc(I)cc4F)n(C)c(=O)c(C)c32)c1 [Trametinib] (2.5 nM) | – | 98.6 | 102 | 112 | 117 | 103 | 89.9 | 100 | 117 | 72.4 | 120 | 96.3 | 94.2 | 86.5 | 82.8 | 101 | 80.7 | 86.5 | 70.1 | 99.1 | 89.3 | 99.2 | 109 | 90.8 | 94 | 112 | 106 | 98.4 | 93.3 | 101 | 100 | 97.4 | 24.3 | 86.8 | 96.1 | 47.4 | 117
CC[C@H](Nc1ncnc2[nH]cnc12)c1nc2cccc(F)c2c(=O)n1-c1ccccc1 [GS-1101] (100 nM) | 84.8 | 105 | 102 | 107 | 94 | 100 | 94 | 93 | 93.3 | 78 | 103 | 102 | 105 | 93.9 | 97.6 | 80.1 | – | 92 | 93.1 | 96.1 | 98.5 | 93 | 84.8 | 96.8 | 92.7 | 93.3 | 91.9 | 85.2 | 86.8 | 94.6 | 95.1 | 90.4 | 102 | 90.8 | 90 | 84.1 | 87.8
Nc1nc2[nH]cc(CCc3ccc(C(=O)N[C@@H](CCC(=O)O)C(=O)O)cc3)c2c(=O)[nH]1 [Pemetrexed] (100 nM) | 87.1 | 102 | 99.7 | – | 91.2 | 104 | 103 | 96.2 | 88.1 | 90.4 | 93 | 98 | 96.6 | 103 | 97.7 | 58.9 | 103 | 96.8 | 92.3 | 93.2 | 103 | 72.1 | 98.1 | 28.8 | 88.6 | 66.6 | 95.2 | 63.2 | 80.4 | 105 | 104 | 61 | 95 | 75.7 | 80.9 | 92.8 | 88.5
N#Cc1ccc(C(c2ccc(C#N)cc2)n2cncn2)cc1 [Letrozole] (100 nM) | 79 | 53.6 | 87.3 | 108 | 102 | 100 | 75.3 | 93.5 | 103 | 94.5 | – | 91.1 | 96.3 | 114 | 101 | – | 105 | 101 | 96.7 | 97.2 | 104 | 95.9 | 101 | 105 | 95.5 | 104 | 106 | 102 | 94.5 | 99.8 | 104 | 103 | 102 | 94.2 | 105 | 103 | 83.5
Nc1ccccc1NC(=O)c1ccc(CNC(=O)OCc2cccnc2)cc1 [Entinostat] (100 nM) | 103 | 107 | 104 | 67.2 | 96.6 | 101 | 109 | 100 | 101 | 99.3 | 105 | 97.4 | 110 | 103 | 100 | 80.2 | – | 98.6 | 104 | 104 | 103 | 96.9 | 103 | 102 | 94.8 | 76.1 | 104 | 107 | 96.8 | 98.2 | 115 | 112 | 105 | 94 | 102 | 108 | 101
O=C(O)CCCCC(CCSCc1ccccc1)SCc1ccccc1 (stereo not drawn) [CPI-613] (100 nM) | 51.4 | 107 | 104 | 73.1 | 95.4 | 101 | 105 | 93.3 | 75.1 | 64.3 | 122 | 102 | 96.5 | 104 | 101 | – | 104 | 107 | 99 | 108 | 106 | 114 | 104 | 99.6 | 106 | 61.4 | 106 | 104 | 102 | 98.9 | 105 | 96.4 | 101 | 101 | 101 | 107 | 103
Cc1cnc(NC(=O)Nc2cc(Br)c(C)cc2OC[C@@H]2CNCCO2)cn1 [Rabusertib] (10 nM) | 122 | 94.3 | 98.4 | – | 110 | 106 | 108 | 102 | 106 | 109 | 89.4 | 102 | 95.7 | 95.2 | 106 | 107 | 103 | 109 | 96.3 | 112 | 104 | 106 | 118 | 107 | 97.6 | 91.9 | 104 | 110 | 108 | 109 | 98.4 | 102 | 104 | 99.7 | 115 | 107 | 119
